System: NALM6 cells
Assay: In vitro cytotoxicity (CellTiter-Glo) on NALM6 cells
Format: cell-based
Settings: 96 hours, minimally/low effective dose used for the combination
Method: Isobolograms: Cells were plated at 5000 per well in 384 well plates using Fluid-X liquid handler (Fluid-X, Boston, Mass.). SGN-CD19A and Vincristine were plated separately and serial diluted in 2×96 well plates per drug. SGN-CD19A and Vincristine were added to 384 well plates, either alone or in combination at range above and below the IC50 for each single agent using the Hamilton STAR automation robotics (Hamilton, Reno, Nev.). Cells were kept at 37° C. for 96 hours. Cell viability readout was performed using the CellTiter-Glo assay (Promega, Madison, Wis.). Luminescence was measured using the Envision plate reader (Perkin Elmer, Waltham, Mass.). Activity was determined by the luminescence of treated cells compared to that of untreated cells.
To verify the results of the in vivo SGN-CD19A plus vincristine or SGN-CD19A plus doxorubicin combinations, in vitro cytotoxicity experiments were performed. […] The concentration of each agent was serially diluted to include doses that would have no cytotoxicity to doses that would kill all cells. […] NALM-6 cells were also incubated with a combination of SGN-CD19A and doxorubicin, in a similar manner.

SMILES	cell kill as a single agent
COc1cccc2c1C(=O)c1c(O)c3c(c(O)c1C2=O)C[C@@](O)(C(=O)CO)C[C@@H]3O[C@H]1C[C@H](N)[C@H](O)[C@H](C)O1 [Doxorubicin]	approximately 20%
CC[C@]1(O)C[C@H]2CN(CCc3c([nH]c4ccccc34)[C@@](C(=O)OC)(c3cc4c(cc3OC)N(C=O)[C@H]3[C@@](O)(C(=O)OC)[C@H](OC(C)=O)[C@]5(CC)C=CCN6CC[C@]43[C@@H]65)C2)C1 [Vincristine]	approximately 5%

Source: patent US20180028681A1, “COMBINATION THERAPY USING A CD19-ADC AND VINCRISTINE” (SEATTLE GENETICS, INC., priority 2015, published 2018)
